Results reported in patent US4363922A, “Esters of antibiotic nodusmicin” (priority 1981, dated 1982).
Values after ≈ are worked out from the molar mass of the structure shown.

Tested on: not listed separately
Test: Solubility noted in the MIC determination
Conditions: BHI broth

Row | Structure (SMILES) | insoluble
1 | COC1CC2C=CC3C4OC2(C(C)=CC(C)C(C(C)O)OC1=O)C3C(O)C(C)C4OC(=O)c1ccccc1 (stereo not drawn) [9-O--benzoyl-, 9-O-benzoyl-nodusmicin] | insoluble
2 | COC1CC2C=CC3C4OC2(C(C)=CC(C)C(C(C)OC(=O)c2ccccc2)OC1=O)C3C(O)C(C)C4O (stereo not drawn) [18-O--benzoyl-, 18-O-benzoyl-nodusmicin] | insoluble
3 | COC1CC2C=CC3C4OC2(C(C)=CC(C)C(C(C)OC(=O)c2ccc[nH]2)OC1=O)C3C(O)C(C)C4OC(=O)c1ccc[nH]1 (stereo not drawn) [U-60,908, 9,18-O--Dipyrrole-2-carbonyl-] | insoluble
4 | COC1CC2C=CC3C4OC2(C(C)=CC(C)C(C(C)O)OC1=O)C3C(O)C(C)C4OC(=O)c1cc2ccccc2[nH]1 (stereo not drawn) [U-61,273, 9-O--Indole-2-carbonyl-] | insoluble

Tested on: S.aureus UC-76
Test: Minimum Inhibitory Concentration, microplate broth-dilution, S. aureus UC-76
Conditions: BHI broth; sensitive strain

Row | Structure (SMILES) | MIC S.aureus UC-76 [µg/mL]
5 | COC1CC2C=CC3C4OC2(C(C)=CC(C)C(C(C)O)OC1=O)C3C(O)C(C)C4OC(=O)c1ccc[nH]1 (stereo not drawn) [U-59,760, 9-O-pyrrole-2-carbonyl ester of nodusmicin, reference compound] | 0.125 (≈ 0.242 µM)

Same assay, conditions: Staphylococcus aureus, UC76, read-out: MIC S.aureus UC-76, BHI broth; sensitive strain

Row | Structure (SMILES) | MIC [µg/mL]
6 | COC1CC2C=CC3C4OC2(C(C)=CC(C)C(C(C)O)OC1=O)C3C(O)C(C)C4OC(=O)c1ccc[nH]1 (stereo not drawn) [U-59,760, 9-O-pyrrole-2-carbonyl ester of nodusmicin, reference compound] | 0.0625 (≈ 0.121 µM)

Tested on: S.aureus UC 80
Test: Dipped disc agar diffusion assay, S. aureus
Conditions: 1 mg./ml.; 12.7 mm paper disc; 16 hours

Row | Structure (SMILES) | Agar Diffusion 1 mg./ml. S.aureus UC 80 (inhibition zone)
7 | COC1CC2C=CC3C4OC2(C(C)=CC(C)C(C(C)O)OC1=O)C3C(O)C(C)C4OC(=O)c1ccc[nH]1 (stereo not drawn) [U-59,760, 9-O-pyrrole-2-carbonyl ester of nodusmicin, reference compound] | 38

Same assay, conditions: Staphylococcus aureus, UC80, 16 h, read-out: Agar Diffusion 1 mg./ml. S.aureus UC 80 (inhibition zone)

Row | Structure (SMILES) | zone of inhibition at 1000 µg/mL [mm]
8 | COC1CC2C=CC3C4OC2(C(C)=CC(C)C(C(C)O)OC1=O)C3C(O)C(C)C4OC(=O)c1ccc(Br)o1 (stereo not drawn) [U-61,463, 9-O--5-Bromofuroyl-] | 0

Same assay, conditions: Staphylococcus aureus, UC80, 16 h, read-out: Agar Diffusion 1 mg./ml. S.aureus UC 80 (inhibition zone), 1 mg./ml.; 12.7 mm paper disc; 16 hours

Row | Structure (SMILES) | zone of inhibition at 1000 µg/mL [mm]
9 | COC1CC2C=CC3C4OC2(C(C)=CC(C)C(C(C)O)OC1=O)C3C(O)C(C)C4OC(=O)c1ccc[nH]1 (stereo not drawn) [U-59,760, 9-O-pyrrole-2-carbonyl ester of nodusmicin, reference compound] | 37
10 | COC1CC2C=CC3C4OC2(C(C)=CC(C)C(C(C)OC(=O)c2ccc[nH]2)OC1=O)C3C(O)C(C)C4OC(=O)c1ccc[nH]1 (stereo not drawn) [U-60,908, 9,18-O--Dipyrrole-2-carbonyl-] | 24

Tested on: S.pyrogenes UC-152
Test: Minimum Inhibitory Concentration, microplate broth-dilution, S. pyrogenes UC-152
Conditions: BHI broth

Row | Structure (SMILES) | MIC S.pyrogenes UC-152 [µg/mL]
11 | COC1CC2C=CC3C4OC2(C(C)=CC(C)C(C(C)O)OC1=O)C3C(O)C(C)C4OC(=O)c1ccc[nH]1 (stereo not drawn) [U-59,760, 9-O-pyrrole-2-carbonyl ester of nodusmicin, reference compound] | 62.5 (≈ 121 µM)

Same assay, conditions: read-out: MIC S.pyrogenes UC-152, BHI broth

Row | Structure (SMILES) | MIC [µg/mL]
12 | COC1CC2C=CC3C4OC2(C(C)=CC(C)C(C(C)O)OC1=O)C3C(O)C(C)C4OC(=O)c1ccc[nH]1 (stereo not drawn) [U-59,760, 9-O-pyrrole-2-carbonyl ester of nodusmicin, reference compound] | > 125

Tested on: S.lutea UC-130
Test: Dipped disc agar diffusion assay, S. lutea
Conditions: Micrococcus luteus, UC130, 16 h, read-out: Agar Diffusion 1 mg./ml. S.lutea UC-130 (inhibition zone)

Row | Structure (SMILES) | zone of inhibition at 1000 µg/mL [mm]
13 | COC1CC2C=CC3C4OC2(C(C)=CC(C)C(C(C)O)OC1=O)C3C(O)C(C)C4OC(=O)c1ccccc1 (stereo not drawn) [9-O--benzoyl-, 9-O-benzoyl-nodusmicin] | 30
14 | COC1CC2C=CC3C4OC2(C(C)=CC(C)C(C(C)O)OC1=O)C3C(O)C(C)C4OC(=O)c1ccc[nH]1 (stereo not drawn) [U-59,760, 9-O-pyrrole-2-carbonyl ester of nodusmicin, reference compound] | 44
15 | COC1CC2C=CC3C4OC2(C(C)=CC(C)C(C(C)OC(=O)c2ccc[nH]2)OC1=O)C3C(O)C(C)C4OC(=O)c1ccc[nH]1 (stereo not drawn) [U-60,908, 9,18-O--Dipyrrole-2-carbonyl-] | 29
16 | COC1CC2C=CC3C4OC2(C(C)=CC(C)C(C(C)O)OC1=O)C3C(O)C(C)C4OC(=O)c1cc2ccccc2[nH]1 (stereo not drawn) [U-61,273, 9-O--Indole-2-carbonyl-] | 22
17 | COC1CC2C=CC3C4OC2(C(C)=CC(C)C(C(C)O)OC1=O)C3C(O)C(C)C4OC(=O)c1ccc(Br)o1 (stereo not drawn) [U-61,463, 9-O--5-Bromofuroyl-] | 35

Same assay, conditions: Micrococcus luteus, UC130, 16 h, read-out: zone of inhibition, S. lutea

Row | Structure (SMILES) | zone of inhibition at 1000 µg/mL [mm]
18 | COC1CC2C=CC3C4OC2(C(C)=CC(C)C(C(C)O)OC1=O)C3C(O)C(C)C4OC(=O)c1ccccc1 (stereo not drawn) [9-O--benzoyl-, 9-O-benzoyl-nodusmicin] | 30
